These are literature values, as cited in patent US4902791A, “Nitrosourea derivatives, process for their preparation and medicaments containing them” (Sanofi S.A., priority 1983, dated 1990).

For data set [1] the following is noted: MONTERO et al; cited from earlier work.
For data set [2], the system named is L 1210 leucemia. As to conditions: IMBACH et al; cited from earlier work.

As to `O=NN(CCCl)C(=O)N[C@@H]1O[C@H](CO)[C@@H](O)[C@H](O)[C@H]1O` [1-[3-(2-chloro-ethyl) 3-nitroso-ureido]-1-beta-D-glucopyranose], the “toxicity on the bone marrow” value in data set [1] is on record as “lower toxicity on the bone marrow”.
`CC(=O)OC[C@H]1O[C@@H](NC(=O)N(CCCl)N=O)[C@H](OC(C)=O)[C@@H](OC(C)=O)[C@@H]1OC(C)=O` [2,3,4,6-tetra-O-acetyl 1-[3-(2-chlor-ethyl)nitroso-3-ureido]-1-desoxy-beta-D-glucopyranose]: the “toxicity on the bone marrow” value in data set [1] is “lower toxicity on the bone marrow”.
`CC1(C)O[C@@H]2[C@@H](COC(=O)c3ccc([N+](=O)[O-])cc3)OC(NC(=O)N(CCCl)N=O)[C@@H]2O1` (stereo partly drawn) [RFCNU, 1-(2-chloro-ethyl)3-(ribofuranosyl-2',3'-isopropylidene-5-paranitro benzoate)-nitrosourea]: the “oncostatic action on L 1210 leucemia” value in data set [2] is recorded as “oncostatic action”.
